For experiment [1], the target named is recombinant human CB1 receptor (Homo sapiens, UniProt P21554). In words: Cannabinoid Receptor-1 (CB1) Binding Assay ([3H]CP-55940 displacement). The conditions noted are these: recombinant human CB1 in CHO cell membranes, 0.6 nM [3H]CP-55940. On the procedure:
Binding affinity determination is based on recombinant human CB1 receptor expressed in Chinese Hamster Ovary (CHO) cells (Felder et al, Mol. Pharmacol. 48: 443-450, 1995). Total assay volume is 250 μl (240 μl CB1 receptor membrane solution plus 5 μl test compound solution plus 5 μl [3H]CP-55940 solution). Final concentration of [3H]CP-55940 is 0.6 nM. Binding buffer contains 50 mM Tris-HCl, pH 7.4, 2.5 mM EDTA, 5 mM MgCl28, 0.5 mg/mL fatty acid free bovine serum albumin and protease inhibitors (Cat#P8340, from Sigma). To initiate the binding reaction, 5 μl of radioligand solution is added, the mixture is incubated with gentle shaking on a shaker for 1.5 h at 30° C. The binding is terminated by using 96-well harvester and filtering through GF/C filter presoaked in 0.05% polyethylenimine. The bound radiolabel is quantitated using scintillation counter. Apparent binding affinities for various compounds are calculated from IC50 values (DeBlasi et al., Trends Pharmacol Sci 10: 227-229, 1989).

Experiment [2] addresses recombinant human CB1 receptor expressed in CHO cells (Homo sapiens, UniProt P21554). In words: Cannabinoid Receptor-1 (CB1) Functional Activity Assay (intracellular cAMP, forskolin). It counts as cell-based. As to conditions: for EC50: cAMP level with forskolin; for functional mode at CB1 receptor: cAMP, Biological Example 3. The procedure: The functional activation of CB1 receptor is based on recombinant human CB1 receptor expressed in CHO cells (Felder et al, Mol. Pharmacol. 48: 443-450, 1995). To determine the agonist activity or inverse agonist activity of any test compound, 50 ul of CB1-CHO cell suspension are mixed with test compound and 70 ul assay buffer containing 0.34 mM 3-isobutyl-1-methylxanthine and 5.1 uM of forskolin in 96-well plates. The assay buffer is comprised of Earle's Balanced Salt Solution supplemented with 5 mM MgCl2, 1 mM glutamine, 10 mM HEPES, and 1 mg/mL bovine serum albumin. The mixture is incubated at room temperature for 30 minutes, and terminated by adding 30 ul/well of 0.5M HCl. The total intracellular cAMP level is quantitated using the New England Nuclear Flashplate and cAMP radioimmunoassay kit.
To determine the antagonist activity of test compound, the reaction mixture also contains 0.5 nM of the agonist CP55940 (or 50 nM of methanandamide), and the reversal of the CP55940 (or methanandamide) effect is quantitated with increasing concentration of the test compound. Intracellular cAMP is determined as described above. An IC50 value for the test compound is calculated from the titration curve.
Alternatively, a series of dose response curves for the agonist CP55940 (or methanandamide) is performed with increasing concentration of the test compound in each of the dose response curves, and a Schild analysis is carried to calculate the Kb value which is an estimation of test compound binding affinity.
In general terms: Cyclic AMP is a second messenger, typically raised through Gs and lowered through Gi signalling.

The record followed here is US20100063032A1, “SUBSTITUTED PYRIDO[2,3-D]PYRIMIDINE DERIVATIVES AS CANNABINOID-1 RECEPTOR MODULATORS” (priority 2007, published 2010).

recombinant human CB1 receptor, sequence (P21554 whole entry): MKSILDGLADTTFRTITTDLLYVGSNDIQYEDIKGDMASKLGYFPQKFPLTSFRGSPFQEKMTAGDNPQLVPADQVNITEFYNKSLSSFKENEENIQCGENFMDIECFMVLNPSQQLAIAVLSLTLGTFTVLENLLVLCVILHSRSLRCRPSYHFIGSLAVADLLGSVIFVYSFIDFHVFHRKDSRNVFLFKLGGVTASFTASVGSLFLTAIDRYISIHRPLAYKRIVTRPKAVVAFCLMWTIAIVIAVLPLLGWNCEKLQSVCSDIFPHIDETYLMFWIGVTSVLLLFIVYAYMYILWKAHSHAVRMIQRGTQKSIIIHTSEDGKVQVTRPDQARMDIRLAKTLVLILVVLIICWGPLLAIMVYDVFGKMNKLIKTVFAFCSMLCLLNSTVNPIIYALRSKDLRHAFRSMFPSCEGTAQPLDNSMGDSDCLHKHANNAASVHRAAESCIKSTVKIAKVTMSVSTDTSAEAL
recombinant human CB1 receptor expressed in CHO cells, sequence (P21554 whole entry): as above

Regarding `CC(C)(C)c1nc(N)c2cc(-c3ccc(Cl)cc3)c(-c3ccc(Cl)cc3Cl)nc2n1` [Example 3, 2-Tert-butyl-6-(4-chlorophenyl)-7-(2,4-dichlorophenyl)pyrido[2,3-d]pyrimidin-4-amine], the IC50 in experiment [1] was 11 nM. Besides, in experiment [2], the EC50 was less than 15 nM and the “functional mode at CB1 receptor” value was “functional inverse agonists”.

With `CC(C)(C)c1nc2nc(-c3ccccc3Cl)c(-c3ccc(Cl)cc3)cc2c(=O)[nH]1` [Example 11, 2-Tert-butyl-7-(2-chlorophenyl)-6-(4-chlorophenyl)pyrido[2,3-d]pyrimidin-4(3H)-one], in experiment [1], the IC50 is 7 nM. For the same compound, in experiment [2], the EC50 was less than 15 nM and the “functional mode at CB1 receptor” value is “functional inverse agonists”.

As to `CC(C)(C)c1nc2nc(-c3ccc(-c4cn[nH]c4)cc3Cl)c(-c3ccc(Cl)cc3)cc2c(=O)[nH]1` [Example 25, 2-Tert-butyl-6-(4-chlorophenyl)-7-[2-chloro-4-(1H-pyrazol-4-yl)phenyl]pyrido[2,3-d]pyrimidin-4(3H)-one], the concentration for half-maximal inhibition (IC50) in experiment [1] was determined as 10 nM. In experiment [2], the concentration giving a half-maximal response (EC50) is less than 15 nM and the “functional mode at CB1 receptor” value is listed as “functional inverse agonists”.

In the case of `CC(C)(C)Nc1nc(C(C)(C)C)nc2nc(-c3ccccc3Cl)c(-c3ccc(Cl)cc3)cc12` [Example 48, N,2-Di-tert-butyl-7-(2-chlorophenyl)-6-(4-chlorophenyl)pyrido[2,3-d]pyrimidin-4-amine], the IC50 in experiment [1] was 3 nM. In experiment [2], the 50% effective concentration (EC50) was less than 15 nM and the “functional mode at CB1 receptor” value was “functional inverse agonists”.

For `CC(C)(C)c1nc(NCC(F)(F)F)c2cc(-c3ccc(Br)cc3)c(-c3ccccc3Cl)nc2n1` [Example 58, 6-(4-Bromophenyl)-2-tert-butyl-7-(2-chlorophenyl)-N-(2,2,2-trifluoroethyl)pyrido[2,3-d]pyrimidin-4-amine], in experiment [1], the IC50 was found to be 2 nM. In experiment [2], the EC50 is less than 15 nM and the “functional mode at CB1 receptor” value is “functional inverse agonists”.

For the compound `Cn1c(-c2ccc(Cl)cc2)nc2nc(-c3ccccc3Cl)c(-c3ccc(Cl)cc3)cc2c1=O` [Example 60, 7-(2-Chlorophenyl)-2,6-bis(4-chlorophenyl)-3-methylpyrido[2,3-d]pyrimidin-4(3H)-one], the half-inhibitory concentration (IC50) in experiment [1] came to 4 nM. Further, in experiment [2], the EC50 is less than 15 nM and the “functional mode at CB1 receptor” value was “functional inverse agonists”.

With `CC(C)(C)c1nc(C#N)c2cc(-c3ccc(C#N)cc3)c(-c3ccccc3Cl)nc2n1` [Example 69, 2-Tert-butyl-7-(2-chlorophenyl)-6-(4-cyanophenyl)pyrido[2,3-d]pyrimidine-4-carbonitrile], the IC50 in experiment [1] is 2 nM. In experiment [2], the EC50 was less than 15 nM and the “functional mode at CB1 receptor” value was “functional inverse agonists”.

For `CC(C)(C)c1nc(-c2ccc(F)cc2)c2cc(-c3ccc(Cl)cc3)c(-c3ccccc3Cl)nc2n1` [Example 72, 2-Tert-butyl-7-(2-chlorophenyl)-6-(4-chlorophenyl)-4-(4-fluorophenyl)pyrido[2,3-d]pyrimidine], in experiment [1], the IC50 is 0.6 nM. For the same compound, in experiment [2], the EC50 was less than 15 nM and the “functional mode at CB1 receptor” value is on record as “functional inverse agonists”.

A word on the IC50: it is the concentration at which inhibition is half-maximal. For orientation: EC50 means the midpoint of the concentration-response curve.
